The values below come from US11840541B2 (priority 2014, dated 2023).

“Also recorded” adds a separate entry of the source.

One assay addresses T1, Human MOR (Homo sapiens, UniProt P35372).
T1 construct: expressed in transfected cells; host or cells: HEK-293T
The assay can be described thus: cell-based.

Assay [1] addresses T2, Human KOR (Homo sapiens, UniProt P41145).
T2 construct: expressed in transfected cells; host or cells: HEK-293T
Nature of the assay: cell-based.

The target of another assay is T3, Human DOR (Homo sapiens, UniProt P41143).
T3 construct: expressed in transfected cells; host or cells: HEK-293T
Nature of the assay: cell-based.

Assay [2] deals with T2, Human KOR. The assay can be described thus: BRET functional assay, inhibition of reference agonist U-50,488 (antagonist mode), human KOR. Format: cell-based. A general note: In BRET a luciferase serves as donor, and the signal depends on an acceptor being close.

T3 sequence (P41143 whole entry): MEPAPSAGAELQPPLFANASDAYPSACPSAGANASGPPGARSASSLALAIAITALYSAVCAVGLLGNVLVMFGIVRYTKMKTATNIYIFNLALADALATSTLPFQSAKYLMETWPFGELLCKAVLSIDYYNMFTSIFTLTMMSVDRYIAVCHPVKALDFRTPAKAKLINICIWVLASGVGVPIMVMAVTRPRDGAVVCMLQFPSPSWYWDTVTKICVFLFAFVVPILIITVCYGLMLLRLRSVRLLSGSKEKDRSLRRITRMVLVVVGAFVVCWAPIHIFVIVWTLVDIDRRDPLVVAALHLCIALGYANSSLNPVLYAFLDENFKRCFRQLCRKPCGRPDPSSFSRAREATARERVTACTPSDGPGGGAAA
T2 sequence (P41145 whole entry): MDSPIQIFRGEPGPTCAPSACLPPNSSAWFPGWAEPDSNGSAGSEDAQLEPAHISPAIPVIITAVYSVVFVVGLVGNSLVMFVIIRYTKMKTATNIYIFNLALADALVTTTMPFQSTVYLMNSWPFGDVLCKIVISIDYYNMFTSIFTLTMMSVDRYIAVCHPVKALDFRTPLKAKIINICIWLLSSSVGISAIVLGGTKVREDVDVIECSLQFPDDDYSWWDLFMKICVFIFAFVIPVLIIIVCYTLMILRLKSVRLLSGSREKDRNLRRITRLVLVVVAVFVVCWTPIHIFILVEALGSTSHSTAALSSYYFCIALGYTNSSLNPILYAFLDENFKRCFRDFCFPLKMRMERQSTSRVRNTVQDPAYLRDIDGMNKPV
T1 sequence (P35372 whole entry): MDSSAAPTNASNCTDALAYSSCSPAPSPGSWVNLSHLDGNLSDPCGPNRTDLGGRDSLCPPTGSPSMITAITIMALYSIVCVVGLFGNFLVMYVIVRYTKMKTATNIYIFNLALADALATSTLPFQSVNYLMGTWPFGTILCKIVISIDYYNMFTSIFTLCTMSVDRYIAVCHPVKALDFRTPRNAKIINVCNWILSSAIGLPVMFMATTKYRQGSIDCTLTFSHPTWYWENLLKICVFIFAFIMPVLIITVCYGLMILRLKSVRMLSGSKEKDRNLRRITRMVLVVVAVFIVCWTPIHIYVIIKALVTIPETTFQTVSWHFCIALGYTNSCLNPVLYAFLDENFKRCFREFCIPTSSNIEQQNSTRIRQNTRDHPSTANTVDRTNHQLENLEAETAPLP

For the compound `CCC1CC2CC3c4oc5ccc(O)cc5c4C[C@@H](CC)N(C2)C13` (stereo partly drawn) [α-endo-52g], the “agonist activity at MOR (in words)” value on Human MOR is “not active as agonist”. Moreover, the EC50 was over 100 µM at Human MOR (EC50 at indicated opioid receptor, Human MOR); over 100 µM at Human KOR [1] (EC50 at indicated opioid receptor, Human KOR); over 100 µM at Human DOR (EC50 at indicated opioid receptor, Human DOR). Also, the “agonist activity at KOR (in words)” value at Human KOR [1] was “not active as agonist; also recorded: no agonist activity”. Besides, on Human DOR, the “agonist activity at DOR (in words)” value is reported as “not active as agonist”. The IC50 on Human KOR [2] came out at 8.2 ± 0.5 µM. The “antagonist activity at KOR (in words)” value on Human KOR [2] was “KOR antagonist”.
As for `CC[C@@H]1Cc2c(oc3ccc(O)cc23)C2CC3CCC2N1C3` (stereo partly drawn) [α-endo-60f], the EC50 on Human MOR (EC50, Human MOR) is over 100 µM; at Human KOR [1] (EC50, Human KOR) it was over 10 µM; on Human DOR (EC50, Human DOR), over 100 µM.
With `CC[C@H]1Cc2c(oc3ccc(O)cc23)C2CC3CCC2N1C3` (stereo partly drawn) [α-exo-60f], the EC50 on Human MOR (EC50, Human MOR) is under 10 µM; on Human KOR [1] (EC50, Human KOR), under 10 µM; on Human DOR (EC50, Human DOR), under 10 µM.

A word on the EC50: it is the concentration that produces a half-maximal response. The low end stands for greater potency, the high end for weaker potency. One may read the IC50 as the concentration needed to halve the response being measured.
